Measurements as given in EP1641803B1, “THIENOPYRIMIDINE DERIVATIVES AS POTASSIUM CHANNEL INHIBITORS” (Xention Limited, priority 2003, dated 2004).

Key:
human Kv1.5 = biological target: T1, human Kv1.5 (Homo sapiens, UniProt P22460); assay: Kv1.5 Rb+ Efflux Assay; type: cell-based; conditions: inhibition of 86Rb+ efflux through Kv1.5; cells stably transfected with human Kv1.5; 10 point concentration response curves n=2; normalised to 2.5mM 4 amino-pyridine block
T1 construct: expressed in transfected cells
Method: The pore of a potassium channel is permeable to other monovalent cations such as Rb^+ and Tl^+. Analysis of cellular efflux of potassium channel permeable ions enables potassium channel activity to be monitored directly. Cells stably transfected with cDNA for human Kv1.5 (in pEF6::VA-His-TOPO) were grown in Dulbecco's Modified Eagle media (DMEM) alpha supplemented with 10% Fetal Calf Serum (FCS), 20 µl/ml penicillin (5000U/ml) streptomycin (5000µg/ml), 10µl/ml [100x] glutamine, and blasticidin (7.5µg/ml). Cells were dispensed into 96 well cellstar TC plates and allowed to grow until a confluent monolayer was visible. On the morning of the assay run, cold media was aspirated using the TECAN plate washer, and a 50µl media spike containing 2µCi/ml (37kBq/ml) ^86Rb^+ added to each well containing cells using the Shallow-Well Matrix Platemate. Plates were placed in a incubator at 37°C for a minimum of 3 hours. Unloaded ^86Rb^+ in the "hot" media was aspirated and each well washed 4x250µl with Earls Balanced Salt Solution (EBSS) which contained 5mM KCl, 140mM NaCl, 2mM CaCl2, 1mM MgSO4, 10mM HEPES, and 5mM glucose, pH 7.4, 290-300 mOsm. These cells were then pre-incubated with 50µl of EBSS +/- test compounds for 10 minutes at room temperature. After the 10 minute incubation, 50µl of modified EBSS which contained 145mM KCl, 2mM CaCl2, 1mM MgSO4, 10mM HEPES, 5mM glucose, pH 7.4, 290-300 mOsm, was added, and the cells were incubated for a further 10 minutes at room temperature. The high KCl EBSS was used to depolarise cells to a membrane potential that would activate Kv1.5 channels. After the final incubation 80µl/100µl of the reaction from each well was transferred to equivalent wells in a Packard "Optiplate" white 96 well plate and counted in a Packard TopCount liquid scintillation counter by Cerenkov emission. Percentage inhibition ^86Rb^+ efflux through Kv1.5 was calculated by normalisation to 2.5mM 4 amino-pyridine control block of Kv1.5. Alternatively cells were loaded with ^85Rb^+ and quantified by atomic absorption spectroscopy. IC50 determinations were derived from 10 point concentration response curves n=2 using the method described above. Data was fitted as variable slope sigmoidal fit using Graphpad Prism (V3.02) software.

hKv1.5 = hKv1.5 (Homo sapiens, UniProt P22460); assay: Kv1.5 Autopatch Electrophysiology (whole cell patch-clamp); type: cell-based; conditions: compound at 1µM, room temperature (22-24°C), held at -80mV, step to 0mV for 1000ms, total charge measured
Method: The external bathing solution contained (in mM): 150 NaCl, 10 KCl, […], 3 MgCl2, 1 CaCl2, 10 HEPES, pH 7.4. Patch pipettes were filled with an electrode solution of composition (in mM): 160 KCl, 0.5 MgCl2, 10 HEPES, 1 EGTA, pH 7.4 with KOH.
Compounds were dissolved in DMSO (100 %) and made up in the external bather at a concentration of 1µM. All experiments were conducted at room temperature (22-24°C).
A cell suspension (10 ml), with a density of 100,000 cells/ml, was aliquoted into a 15ml centrifuge tube and transferred to an incubator (37°C, 5% CO2) for approximately one hour before use. Following 60 min incubation, a tube was taken and centrifuged at 1000 rpm for 4 mins at room temperature. 9.5 ml supernatant was thence discarded, leaving a cell pellet at the bottom of the tube. The pellet was then resuspended using 100 µl of cold (4 °C), filtered (0.22 µm), 0.2 % BSA/bather solution (0.02g BSA/10ml bather). The bottom of the tube was manually agitated gently until the solution became cloudy with cells. The 100 µl cell resuspension solution was then stored on the bench at 4 °C (using a Peltier-based temperature control device) until used.
A length of capillary glass (1B150F-4, WPI) was dipped into the cell suspension solution, such that - 3 cm column of fluid was taken up by capillary action. A Ag/AgCl wire was dropped into the non-dipped end of the capillary also. The outside of the solution-filled end of the capillary was then dried and the capillary was loaded into the AutoPatch™. Borosilicate glass patch pipettes (from 1.5mm OD, thin-walled filamented, GC150-TF capillary glass, Harvard) were pulled using a DMZ pipette puller (Zeitz Instruments), and were back-filled using the internal pipette solution, being careful that no bubbles remain at the tip or in the body of the pipette. Patch pipettes typically had resistances of 2.3-3.5 MΩ. Once filled, the pipette tip and a proportion of the shaft (- 15 mm) were dipped into Sigmacote (Sigma). The recording pipette was then loaded into the AutoPatch™.
Automated patch-clamping was initiated by the operator, but thereafter AutoPatch.exe continued the experiment providing that pre-set conditions and criteria were satisfied.
Whole cell patch-clamp recordings were made using the AutoPatch™ rig, which incorporated an EPC9 amplifier (HEKA, Germany) under control of Pulse software (v8.54, HEKA, Germany), a motion controller with 2 translators (Newport, UK), valve controller (VF1) and a c-level suction device all at room temperature (22-24°C). This equipment was completely under the control of AutoPatch.exe and operator intervention was only made when there was a requirement to refill the drug reservoirs or to prevent the loss of a cell due to a technical error. Cells with an Rseries greater than 18 MΩ were discounted from the experiment.
Qualification stages prior to perfusion and drug application ensured that the observed current met the criteria for the experiment. Only those cells with an IK > 500 pA were used for experiments. Cells were continuously perfused with external solution at a flow rate of 1.8-2 ml/minute. […] Online analysis of the hKv1.5 current during the application of compounds was performed by the AutoPatch™ software. Voltage-step protocols and analysis of data was performed as described for conventional electrophysiology.
Electrophysiology voltage-step protocols and analysis of data was performed as follows. Data was sampled at 5kHz, and filtered with a -3 dB bandwidth of 2.5kHz. Cells were held at a voltage of -80mV. Currents were evoked to a voltage step for 1000ms in duration at 0mV every 5s. Currents were analysed using Pulsefit software (v8.54, HEKA, Germany), with the total charge measured during the whole of the voltage step. All other plots were produced using Igor Pro (WaveMetrics).

T1 sequence (P22460 whole entry): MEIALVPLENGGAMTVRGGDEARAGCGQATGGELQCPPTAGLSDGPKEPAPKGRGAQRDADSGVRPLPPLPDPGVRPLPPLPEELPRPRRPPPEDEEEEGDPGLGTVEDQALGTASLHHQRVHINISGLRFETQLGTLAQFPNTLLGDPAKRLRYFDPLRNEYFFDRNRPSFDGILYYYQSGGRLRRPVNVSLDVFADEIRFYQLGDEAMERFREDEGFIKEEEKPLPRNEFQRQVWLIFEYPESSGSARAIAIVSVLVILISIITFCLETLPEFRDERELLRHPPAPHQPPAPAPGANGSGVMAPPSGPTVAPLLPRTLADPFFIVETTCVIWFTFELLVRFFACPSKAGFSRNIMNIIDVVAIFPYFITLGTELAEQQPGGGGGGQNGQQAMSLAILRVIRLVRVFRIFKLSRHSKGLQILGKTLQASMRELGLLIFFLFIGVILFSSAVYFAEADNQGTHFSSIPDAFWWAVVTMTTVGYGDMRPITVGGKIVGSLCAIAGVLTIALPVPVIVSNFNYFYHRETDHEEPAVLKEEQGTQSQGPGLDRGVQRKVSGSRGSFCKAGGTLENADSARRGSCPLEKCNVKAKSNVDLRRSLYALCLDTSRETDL
Chain of hKv1.5 (P22460 whole entry): as above

Compound	IC50 (human Kv1.5) [µM]	inhibition at 1 µM (hKv1.5) [%]	% Inhibition at 1µM (hKv1.5) [%]
CN(Cc1ccco1)c1ncnc2scc(-c3cccs3)c12 [Example 100, Furan-2-ylmethyl-methyl-(5-thiophen-2-yl-thieno[2,3-d]pyrimidin-4-yl)-amine]	9.71	19.9	–
CCc1nc(NCc2ccccn2)c2c(-c3ccccc3)csc2n1 [Example 152, (2-Ethyl-5-phenyl-thieno[2,3-d]pyrimidin-4-yl)-pyridin-2-ylmethyl-amine]	0.39	98.7	–
Cc1ccc(-c2csc3ncnc(NCc4ccco4)c23)cc1C [Example 133, [5-(3,4-Dimethyl-phenyl)-thieno[2,3-d]pyrimidin-4-yl]-furan-2-ylmethyl-amine]	0.67	77	–
FC1(F)Oc2ccc(-c3csc4ncnc(NCc5ccccn5)c34)cc2O1 [Example 326, [5-(2,2-Difluoro-benzo[1,3]dioxol-5-yl)-thieno[2,3-d]pyrimidin-4-yl]-pyridin-2-ylmethyl-amine]	10.4	89	–
Brc1ccc(-c2csc3ncnc(NCCc4ccc5c(c4)OCCO5)c23)cc1 [Example 137, [5-(4-Bromo-phenyl)-thieno[2,3-d]pyrimidin-4-yl]-[2-(2,3-dihydro-benzo[1,4]dioxin-6-yl)-ethyl]-amine]	10.7	96	–
OCCc1nc(NCc2ccccn2)c2c(-c3ccccc3)csc2n1 [Example 250, 2-{5-Phenyl-4-[(pyridin-2-ylmethyl)amino]thieno[2,3-d]pyrimidin-2-yl}ethanol]	0.33	98	–
Fc1ccc(-c2csc3ncnc(NCc4ccccn4)c23)cc1 [Example 123, [5-(4-Fluoro-phenyl)-thieno[2,3-d]pyrimidin-4-yl]-pyridin-2-ylmethyl-amine]	0.05	–	–
c1ccc(-c2csc3ncnc(NCC4CCCO4)c23)cc1 (centres unmarked) [Example 114, (5-Phenyl-thieno[2,3-d]pyrimidin-4-yl)-(tetrahydro-furan-2-ylmethyl)-amine]	5.18	–	–
c1ccc(-c2csc3ncnc(NCC4OCCO4)c23)cc1 [Example 116, [1,3]Dioxolan-2-ylmethyl-(5-phenyl-thieno[2,3-d]pyrimidin-4-yl)-amine]	6.16	–	–
Fc1ccc(-c2csc3ncnc(NCc4ccco4)c23)cc1 [Example 124, [5-(4-Fluoro-phenyl)-thieno[2,3-d]pyrimidin-4-yl]-furan-2-ylmethyl-amine]	1.16	–	–
c1ccc(-c2csc3ncnc(NC4CCCCC4)c23)cc1 [Example 91, Cyclohexyl-(5-phenyl-thieno[2,3-d]pyrimidin-4-yl)-amine]	> 30	–	–
c1ccc(-c2csc3ncnc(NCCCn4ccnc4)c23)cc1 [Example 104, (3-Imidazol-1-yl-propyl)-(5-phenyl-thieno[2,3-d]pyrimidin-4-yl)-amine]	> 30	–	–
CCN1CCCC1CNc1ncnc2scc(-c3ccccc3)c12 (centres unmarked) [Example 102, (1-Ethyl-pyrrolidin-2-ylmethyl)-(5-phenyl-thieno[2,3-d]pyrimidin-4-yl)-amine]	> 30	–	–
Clc1ccc(-c2csc3ncnc(NCc4ccccn4)c23)c(Cl)c1 [Example 329, [5-(2,4-Dichloro-phenyl)-thieno[2,3-d]pyrimidin-4-yl]-pyridin-2-ylmethyl-amine]	–	81	–
COCCNc1ncnc2scc(-c3ccccc3)c12 [Example 113, (2-Methoxy-ethyl)-(5-phenyl-thieno[2,3-d]pyrimidin-4-yl)-amine]	5.27	–	–
c1ccc(-c2csc3nc(CN4CCOCC4)nc(NCc4ccccn4)c23)cc1 [Example 303, (2-Morpholin-4-ylmethyl-5-phenyl-thieno[2,3-d]pyrimidin-4-yl)-pyridin-2-ylmethyl-amine]	–	63	–
OCC(O)CNc1nc(NCc2ccccn2)c2c(-c3ccccc3)csc2n1 (centres unmarked) [Example 214, 3-{5-Phenyl-4-[(pyridin-2-ylmethyl)-amino]-thieno[2,3-d]pyrimidin-2-ylamino}-propane-1,2-diol]	–	87	–
Cc1ccc(-c2csc3ncnc(NCCc4ccccc4)c23)cc1 [Example 130, Phenethyl-(5-p-tolyl-thieno[2,3-d]pyrimidin-4-yl)-amine]	8.05	–	–
Cc1csc2ncnc(NCCc3ccc(Cl)cc3)c12 [Example 125, [2-(4-Chloro-phenyl)-ethyl]-(5-methyl-thieno[2,3-d]pyrimidin-4-yl)-amine]	6.91	–	–
c1ccc(CCNc2ncnc3scc(-c4ccccc4)c23)cc1 [Example 90, Phenethyl-(5-phenyl-thieno[2,3-d]pyrimidin-4-yl)-amine]	10.1	–	–
Cc1cccnc1CNc1ncnc2scc(-c3ccccc3)c12 [Example 156, (3-methyl-pyridin-2-ylmethyl)-(5-phenyl-thieno[2,3-d]pyrimidin-4-yl)-amine]	–	92	–
Nc1nc(NCc2ccccn2)c2c(-c3ccccc3)csc2n1 [Example 192, 5-Phenyl-N-4-pyridin-2-ylmethyl-thieno[2,3-d]pyrimidine-2,4-diamine]	–	90	–
CCOC(=O)c1cccnc1CNc1ncnc2scc(-c3ccccc3)c12 [Example 160, 2-[(5-Phenyl-thieno[2,3-d]pyrimidin-4-ylamino)-methyl]-nicotinic acid ethyl ester]	–	80	–
COCOc1ccc(-c2csc3ncnc(NCc4ccccn4)c23)cc1 [Example 324, [5-(4-Methoxymethoxy-phenyl)-thieno[2,3-d]pyrimidin-4-yl]-pyridin-2-ylmethyl-amine]	–	93	–
c1ccc(CNc2ncnc3scc(-c4ccc5c(c4)OCO5)c23)nc1 [Example 319, (5-Benzo[1,3]dioxol-5-yl-thieno[2,3-d]pyrimidin-4-yl)-pyridin-2-ylmethyl-amine]	–	–	97.3
CN(C)Cc1nc(NCc2ccccn2)c2c(-c3ccccc3)csc2n1 [Example 302, (2-Dimethylaminomethyl-5-phenylthieno[2,3-d]pyrimidin-4-yl)pyridin-2-ylmethylamine]	–	76	–
